Patent US11123398B2, “Chemotherapeutic combinations of cationic antimicrobial peptides and chemotherapeutics” (LYTIX BIOPHARMA AS, priority 2014, dated 2021)
Non-standard residues stand in square brackets, D forms with d. Residues, ends and D or L forms follow the SMILES beside them. Dip = N[C@H](C(=O)O)C(c1ccccc1)c1ccccc1

Experiments:
HL-60/ADR = test: MTS cytotoxicity assay, HL-60/ADR; format: cell-based, human; conditions: IC50 resistant / IC50 sensitive line; doxorubicin resistance
Experimental: Tumor cells were plated in 96-well flat-bottom microtitration plates (Nunc, Dutscher, Brumath, France) and incubated at 37° C. for 24 hours before treatment in 190 μl of drug-free culture medium supplemented or not with 10% FBS for adherent or suspension growing cell lines, respectively.
The adherent cell lines were washed once with 200 μl FBS-free culture medium before treatment. Tumor cells were incubated for 4 hours with 10 concentrations of compounds in ¼ dilution step with a top dose of 400 μM (range 4×10^−4 to 4×10^−10 M), with 1% (final concentration) Triton X-100 as positive control and FBS-free culture medium as negative control. The cells (190 μl) were incubated in a 200 μl final volume of FBS-free culture medium containing test substances at 37° C. under 5% CO2.
Three independent experiments were performed, each concentration being tested in quadruplicate. Control cells were treated with vehicle alone. At the end of treatments, the cytotoxic activity was evaluated by a MTS assay (see § 3.3.).
Like MTT, MTS is bioreduced by cells into a formazan product that is directly soluble in culture medium without processing, unlike MTT.
At the end of the cells treatment, 40 μl of a 0.22 μm filtered freshly combined solution of MTS (20 ml at 2 mg/ml, Ref G1111, Batch 235897, Exp March 2009, Promega, Charbonnières, France) and PMS (1 ml at 0.92 mg/ml, Ref P9625, Batch 065K0961, Sigma) in Dulbecco's Phosphate Buffered Saline (DPBS, Ref 17-513Q, Batch 6MB0152, Cambrex), were added in each well. Culture plates were incubated for 2 h at 37° C. Absorbency (OD) were measured at 490 nm in each well using VICTOR^3™ 1420 multilabeled counter (Wallac, PerkinElmer, Courtaboeuf, France).
IC50: drug concentration to obtain a 50% inhibition of cell proliferation.
The dose-response curves were plotted using XLFit 3 (IDBS, United Kingdom). The IC50 determination values were calculated using the XLFit 3 software from semi-log curves. Individual IC50 determination values as well as mean and SD values were generated.
Resistance index was calculated using the following formula: […]
Resistance index was calculated for each compound for each couple of sensitive and resistant cell lines. Individual resistance index was calculated when IC50 values of both sensitive and corresponding resistant cell lines were determined within same experiment. In addition, resistance index was also calculated ratio of mean IC50 values obtained during three independent experiments.

[1] = tested on: murine CT26WT colon carcinoma; test: Murine CT26WT colon carcinoma tumours in mice, treatment regimes; format: in vivo; conditions: for Mean tumour size at day 1: prior to start of treatment
Experimental: The administration takes place by intra-tumoural injection of LTX-315 dissolved in sterile saline (0.9% NaCl in sterile water).
The mice were divided into five groups, 8 mice in each group. When the tumours reached the desired size of 20 mm^2 the treatment by intra tumoural injection was initiated. Group one was treated solely on day 1, Group two on day 1 and 2, Group three on day 1 and 3 and Group four on day 1, 2 and 3. All daily treatments were one single injection of 1.0 mg LTX-315 dissolved in 50 μl (20 mg/ml). Group five was treated with the 50 μl of vehicle for LTX-315 (Group 5).
Weighing and physical examination were used as health controls.

[2] = tested on: murine A20 B-cell lymphoma; test: Murine A20 B-cell lymphoma tumours in mice, dose levels; format: in vivo; conditions: for Mean tumour size at day 1: prior to start of treatment
Experimental: The administration took place by intratumoural injection of LTX-315 dissolved in sterile saline.
The mice were divided into four groups (see Table 8 below for details). The intratumoural treatment was initiated when the tumours had reached the desired size of approximately 5 mm in diameter (minimum of 20 mm^2).
Three dose levels of LTX-315, 1 mg (Group 1), 0.5 mg (Group 2) and 0.25 mg (Group 3) per injection, were investigated. The volume was 50 μl for all injections. LTX-315 was dissolved in sterile 0.9% NaCl water solution. This vehicle was used as control (Group 4). All four groups received three injections.
A caliper was used for tumour size measurements and weighing and physical examination were used as health control.

[3] = Group 1: 1 mg intratumoural on day 1
[4] = Group 2: 1 mg intratumoural on days 1, 2
[5] = Group 3: 1 mg intratumoural on days 1, 3
[6] = Group 4: 1 mg days 1, 2, 3, n=8
[7] = Group 4: 1 mg intratumoural on days 1, 2, 3
[8] = of the 32 treated animals, all four regimes
[9] = Group 1: 1 mg intratumoural once daily days 1,2,3
[10] = Group 2: 0.5 mg intratumoural once daily days 1,2,3
[11] = Group 3: 0.25 mg intratumoural once daily days 1,2,3

Compound: NCCCC[C@H](NC(=O)[C@@H](NC(=O)[C@H](Cc1c[nH]c2ccccc12)NC(=O)[C@H](CCCCN)NC(=O)[C@H](CCCCN)NC(=O)[C@H](Cc1c[nH]c2ccccc12)NC(=O)[C@H](Cc1c[nH]c2ccccc12)NC(=O)[C@H](CCCCN)NC(=O)[C@@H](N)CCCCN)C(c1ccccc1)c1ccccc1)C(N)=O [LTX-315, K-K-W-W-K-K-W-Dip-K-NH2] (H-KKWWKKW[Dip]K-NH2)
- Resistance index (RI), HL-60/ADR (HL-60/ADR): 1.45
- Animals showing complete tumour response ([1]; Group 1: 1 mg day 1): four out of eight
- Free of Tumour at end of Follow-Up ([1]; Group 1: 1 mg day 1, n=8): 50% (4/8)
- Relapse of Tumour ([1]; Group 1: 1 mg day 1, n=8): 20% (1/5)
- Tumour Response: complete response ([1]; Group 1: 1 mg day 1, n=8): 62.5%
- Tumour Response: no response ([1]; Group 1: 1 mg day 1, n=8): 0%
- Tumour Response: partial response ([1]; Group 1: 1 mg day 1, n=8): 27.5%
- Mean tumour size on day 6 [1, 3]: 4.343 ± 2.295 mm^2
- Mean tumour size on day 10 [1, 3]: 7.171 ± 4.035 mm^2
- Mean tumour size on day 17 [1, 3]: 3.712 ± 3.712 mm^2
- Mean tumour size at day 1 [1, 3]: 22.69 ± 0.4070 mm^2
- Animals showing complete tumour response ([1]; Group 2: 1 mg days 1, 2): two out of eight
- Free of Tumour at end of Follow-Up ([1]; Group 2: 1 mg days 1, 2, n=8): 25% (2/8)
- Relapse of Tumour ([1]; Group 2: 1 mg days 1, 2, n=8): 71% (5/7)
- Tumour Response: complete response ([1]; Group 2: 1 mg days 1, 2, n=8): 87.5%
- Tumour Response: no response ([1]; Group 2: 1 mg days 1, 2, n=8): 0%
- Tumour Response: partial response ([1]; Group 2: 1 mg days 1, 2, n=8): 12.5%
- Mean tumour size on day 6 [1, 4]: 1.458 ± 1.458 mm^2
- Mean tumour size on day 10 [1, 4]: 5.058 ± 4.014 mm^2
- Mean tumour size on day 17 [1, 4]: 6.644 ± 3.430 mm^2
- Mean tumour size at day 1 [1, 4]: 22.90 ± 1.155 mm^2
- Animals showing complete tumour response ([1]; Group 3: 1 mg days 1, 3): five out of eight
- Free of Tumour at end of Follow-Up ([1]; Group 3: 1 mg days 1, 3, n=8): 62.5% (5/8)
- Relapse of Tumour ([1]; Group 3: 1 mg days 1, 3, n=8): 29% (2/7)
- Tumour Response: complete response ([1]; Group 3: 1 mg days 1, 3, n=8): 87.5%
- Tumour Response: no response ([1]; Group 3: 1 mg days 1, 3, n=8): 12.5%
- Tumour Response: partial response ([1]; Group 3: 1 mg days 1, 3, n=8): 0%
- Mean tumour size on day 6 [1, 5]: 2.983 ± 2.983 mm^2
- Mean tumour size on day 10 [1, 5]: 10.85 ± 7.553 mm^2
- Mean tumour size on day 17 [1, 5]: 0.00 ± 0.00 mm^2
- Mean tumour size at day 1 [1, 5]: 21.43 ± 1.141 mm^2
- Animals showing complete tumour response ([1]; Group 4: 1 mg days 1, 2, 3): five out of eight
- Free of Tumour at end of Follow-Up [1, 6]: 62.5% (5/8)
- Relapse of Tumour [1, 6]: 37.5%
- Tumour Response: complete response [1, 6]: 100% (8/8)
- Tumour Response: no response [1, 6]: 0%
- Tumour Response: partial response [1, 6]: 0%
- Mean tumour size on day 6 [1, 7]: 0.00 ± 0.00 mm^2
- Mean tumour size on day 10 [1, 7]: 0.00 ± 0.00 mm^2
- Mean tumour size on day 17 [1, 7]: 1.308 ± 1.308 mm^2
- Mean tumour size at day 1 [1, 7]: 24.09 ± 1.653 mm^2
- Anti-tumour effect ([1]; all four treatment regimes): strong anti tumour effect
- Toxic or other adverse effects ([1]; all treated groups, intratumoural 1 mg): No toxic or other adverse effects besides local necrotic tissue and wound formation were observed
- Animals without response to the treatment ([1]; of the 32 treated animals (in Group 3)): one
- Animals with a complete tumour response [1, 8]: 27
- Animals with a partial response [1, 8]: four
- Anti-tumour effect ([2]; 1 mg and 0.5 mg, first period of the study): strong and rapid anti tumour effect
- Mean tumour size on day 4 [2, 9]: 0 mm^2
- Mean tumour size on day 9 [2, 9]: 3.70 ± 2.40 mm^2
- Mean tumour size on day 14 [2, 9]: 12.43 ± 7.87 mm^2
- Mean tumour size at day 1 [2, 9]: 25.82 ± 0.80 mm^2
- Free of Tumour at end of Follow-Up ([2]; Group 1: 1 mg x3, n=7): 42.8% (3/7)
- Relapse of Tumour ([2]; Group 1: 1 mg x3, n=7): 25%
- Tumour Response: complete response ([2]; Group 1: 1 mg x3, n=7): 57.2% (4/7)
- Tumour Response: no response ([2]; Group 1: 1 mg x3, n=7): 0%
- Tumour Response: partial response ([2]; Group 1: 1 mg x3, n=7): 42.8% (3/7)
- Mean tumour size on day 4 [2, 10]: 0 mm^2
- Mean tumour size on day 9 [2, 10]: 11.41 ± 4.69 mm^2
- Mean tumour size on day 14 [2, 10]: 61.08 ± 23.84 mm^2
- Mean tumour size at day 1 [2, 10]: 22.03 ± 0.63 mm^2
- Free of Tumour at end of Follow-Up ([2]; Group 2: 0.5 mg x3, n=7): 28.57% (2/7)
- Relapse of Tumour ([2]; Group 2: 0.5 mg x3, n=7): 0% (0/2)
- Tumour Response: complete response ([2]; Group 2: 0.5 mg x3, n=7): 28.57% (2/7)
- Tumour Response: no response ([2]; Group 2: 0.5 mg x3, n=7): 0%
- Tumour Response: partial response ([2]; Group 2: 0.5 mg x3, n=7): 71.42%
- Anti-tumour effect ([2]; Group 3, 0.25 mg/dose, first days): a small inhibitory effect is observed during the first days
- Mean tumour size on day 4 [2, 11]: 20.60 ± 5.71 mm^2
- Mean tumour size on day 9 [2, 11]: 68.49 ± 12.74 mm^2
- Mean tumour size on day 14 [2, 11]: 69.42 ± 17.70 mm^2
- Mean tumour size at day 1 [2, 11]: 21.25 ± 0.64 mm^2
- Free of Tumour at end of Follow-Up ([2]; Group 3: 0.25 mg x3, n=9): 0%
- Tumour Response: complete response ([2]; Group 3: 0.25 mg x3, n=9): 0% (0/9)
- Tumour Response: no response ([2]; Group 3: 0.25 mg x3, n=9): 77.77%
- Tumour Response: partial response ([2]; Group 3: 0.25 mg x3, n=9): 22.22%
- Adverse events or toxic effects ([2]; all LTX-315 groups, intratumoural): Except from the wound formation no other adverse events or toxic effects were observed
- Treated mice with complete tumour response ([2]; optimal dose, Group 1 (1 mg x3)): 3 of 7
